Measured values published in patent US20170100489A1, “POLYETHYLENE GLYCOL-MODIFIED INTEGRIN BLOCKER HM-3 AND USE THEREOF” (HANMEI XU, priority 2012, published 2017).
Where two headings read alike, the source gives them in different places. Where a SMILES comes first, the peptide text is derived from it. Where no end group is shown, it is not given here. mPEG‑SC20k = methoxy polyethylene glycol-succinimidyl-carbonate, 20000 Da

Key:
[1] = test system: human thyroid cancer SW-579 xenograft tumors; assay: Tumor growth inhibition, SW-579 xenograft; settings: for Final weight / Rate of inhibiting tumors / Tumor weight: Once 1 day
Experimental: (§1) Picked the tumor tissue of vigorous growth and was cut into pieces of about 1.5 mm^3. Under sterile conditions, the tumor tissue was inoculated subcutaneously on the right of nude mice. Tumor diameter was measured with a vernier caliper. The animals which had tumors with a size of 100-200 mm^3 were randomly divided into groups. The effect of polypeptide on anti-tumor was dynamically observed through the method of measuring tumor diameter. The times of measuring tumor diameter were once 2 days, and meantime, weighed mice. The mice in experimental group were infused polypeptide through tail vein, once 3 days. The mice in the placebo group were injected saline with the same volume. Tumor volume formula:
(§2) a, b respectively represent the length and width. According to the result of measurement, calculate the relative tumor volume. Evaluation of antitumor activity is relative tumor proliferation rate T/C(%). The formula is as follows: T/C(%)^=TRTV/CRTV×100%

[2] = test system: human pancreatic cancer SW-1990 xenograft tumors; assay: Tumor growth inhibition, SW-1990 xenograft
Experimental: Picked the tumor tissue of vigorous growth and was cut into pieces of about 1.5 mm^3. Under sterile conditions, the tumor tissue was inoculated subcutaneously on the right of nude mice. Tumor diameter was measured with a Vernier caliper. The animals which had tumors with a size of 100-200 mm^3 were randomly divided into groups. The effect of polypeptide on anti-tumor was dynamically observed through the method of measuring tumor diameter. The times of measuring tumor diameter were once 2 days, and meantime, weighed mice. The mice in experimental group were infused polypeptide through tail vein, once 3 days. The mice in the placebo group were injected saline with the same volume.
as §2
TRTV:Treatment group RTV; CRTV: negative control group RTV

[3] = test system: sarcoma HT-1080 xenograft tumors; assay: Tumor growth inhibition, HT-1080 xenograft
Experimental: Tumor diameter was measured with a vernier caliper. […] After administration, all mice were sacrificed. Stripped the tumors and weighed.

[4] = test system: human prostate cancer DU-145 xenograft tumors; assay: Tumor growth inhibition, DU-145 xenograft
Experimental: Human prostate cancer DU-145 cell lines in logarithmic growth phase were picked, and made into 5×10^7/ml cell suspension of under sterile conditions, and then 0.1 ml suspension was inoculated subcutaneously at the right armpit of nude mice. Tumor diameter was measured with a vernier caliper. The animals which had tumors with a size of 100-200 mm^3 were randomly divided into groups. The effect of polypeptide on anti-tumor was dynamically observed through the method of measuring tumor diameter. The times of measuring tumor diameter were once 2 days, and meantime, weighed mice. The mice in experimental group were infused polypeptide through tail vein. The mice in the placebo group were injected saline with the same volume, once 1 day; Cisplatin group: 10 mg/kg, once 1 week; Endostar group: 2.5 mg/kg, once 1 day; The groups of high, intermediate and low polypeptide: 6, 3, 1.5 mg/kg, respectively, once 1 day. After administration, all mice were sacrificed. Stripped the tumors and weighed.

[5] = test system: human ovarian cancer SK-OV-3 xenograft tumors; assay: Tumor growth inhibition, SK-OV-3 xenograft
Experimental: Human ovarian cancer SK-OV-3 cell lines in logarithmic growth phase were picked, and made into 5×10^7/ml cell suspension of under sterile conditions, and then 0.1 ml suspension was inoculated subcutaneously at the right armpit of nude mice. Tumor diameter was measured with a vernier caliper. The animals which had tumors with a size of 100-200 mm^3 were randomly divided into groups. The effect of polypeptide on anti-tumor was dynamically observed through the method of measuring tumor diameter. The times of measuring tumor diameter were once 2 days, and meantime, weighed mice. The mice in experimental group were infused polypeptide through tail vein. The mice in the placebo group were injected saline with the same volume, once 1 day; Cisplatin group: 10 mg/kg, once 1 week; Endostar group: 2.5 mg/kg, once 1 day; The groups of high, intermediate and low polypeptide: 6, 3, 1.5 mg/kg, respectively, once 1 day. After administration, all mice were sacrificed. Stripped the tumors and weighed.

[6] = test system: human testicular cancer 5637 xenograft tumors; assay: Tumor growth inhibition, 5637 xenograft
Experimental: (§3) Human testicular cancer 5637 cell lines in logarithmic growth phase were picked, and made into 5×10^7/ml cell suspension of under sterile conditions, and then 0.1 ml suspension was inoculated subcutaneously at the right armpit of nude mice. Tumor diameter was measured with a vernier caliper. The animals which had tumors with a size of 100-200 mm^3 were randomly divided into groups. The effect of polypeptide on anti-tumor was dynamically observed through the method of measuring tumor diameter. The times of measuring tumor diameter were once 2 days, and meantime, weighed mice. The mice in experimental group were infused polypeptide through tail vein. […] After administration, all mice were sacrificed. Stripped the tumors and weighed.

[7] = test system: human nasopharyngeal cancer CNE xenograft tumors; assay: Tumor growth inhibition, CNE xenograft
Experimental: as §1
a, b respectively represent the length and width. According to the result of measurement, calculate the relative tumor volume. Evaluation of antitumor activity is relative tumor proliferation rate T/C(%). The formula is as follows: T/C(%)^−TRTV/CRTV×100%

[8] = test system: human cervical cancer HeLa xenograft tumors; assay: Tumor growth inhibition, HeLa xenograft
Experimental: Human cervical cancer HeLa cell lines in logarithmic growth phase were picked, and made into 5×10^7/ml cell suspension of under sterile conditions, and then 0.1 ml suspension was inoculated subcutaneously at the right armpit of nude mice. Tumor diameter was measured with a vernier caliper. The animals which had tumors with a size of 100-200 mm^3 were randomly divided into groups. The effect of polypeptide on anti-tumor was dynamically observed through the method of measuring tumor diameter. The times of measuring tumor diameter were once 2 days, and meantime, weighed mice. The mice in experimental group were infused polypeptide through tail vein. The mice in the placebo group were injected saline with the same volume, once 1 day; Taxol group: 10 mg/kg, once 1 week; Endostar group: 2.5 mg/kg, once 1 day; The groups of high, intermediate and low polypeptide: 6, 3, 1.5 mg/kg, respectively, once 1 day. After administration, all mice were sacrificed. Stripped the tumors and weighed.

[9] = test system: human bladder cancer HT1376 xenograft tumors; assay: Tumor growth inhibition, HT1376 xenograft
Experimental: Human bladder cancer HT1376 cell lines in logarithmic growth phase were picked, and made into 5×10^7/ml cell suspension of under sterile conditions, and then 0.1 ml suspension was inoculated subcutaneously at the right armpit of nude mice. Tumor diameter was measured with a vernier caliper. The animals which had tumors with a size of 100-200 mm^3 were randomly divided into groups. The effect of polypeptide on anti-tumor was dynamically observed through the method of measuring tumor diameter. The times of measuring tumor diameter were once 2 days, and meantime, weighed mice. The mice in experimental group were infused polypeptide through tail vein. The mice in the placebo group were injected saline with the same volume, once 1 day; Taxol group: 10 mg/kg, once 1 week; Endostar group: 2.5 mg/kg, once 1 day; The groups of high, intermediate and low polypeptide: 6, 3, 1.5 mg/kg, respectively, once 1 day. After administration, all mice were sacrificed. Stripped the tumors and weighed.

[10] = test system: human gallbladder cancer GBC-SD xenograft tumors; assay: Tumor growth inhibition, GBC-SD xenograft
Experimental: Human gallbladder cancer GBC-SD cell lines in logarithmic growth phase were picked and made into 5×10^7/ml cell suspension of under sterile conditions, and then 0.1 ml suspension was inoculated subcutaneously at the right armpit of nude mice. Tumor diameter was measured with a vernier caliper. The animals which had tumors with a size of 100-200 mm^3 were randomly divided into groups. The effect of polypeptide on anti-tumor was dynamically observed through the method of measuring tumor diameter. The times of measuring tumor diameter were once 2 days, and meantime, weighed mice. The mice in experimental group were infused polypeptide through tail vein. The mice in the placebo group were injected saline with the same volume, once 1 day; Taxol group: 10 mg/kg, once 1 week; Endostar group: 2.5 mg/kg, once 1 day; The groups of high, intermediate and low polypeptide: 6, 3, 1.5 mg/kg, respectively, once 1 day. After administration, all mice were sacrificed. Stripped the tumors and weighed.

[11] = test system: human endometrial cancer HHUA xenograft tumors; assay: Tumor growth inhibition, HHUA xenograft
Experimental: Human endometrial cancer HHUA cell lines in logarithmic growth phase were picked, and made into 5×10^7/ml cell suspension of under sterile conditions, and then 0.1 ml suspension was inoculated subcutaneously at the right armpit of nude mice. Tumor diameter was measured with a vernier caliper. The animals which had tumors with a size of 100-200 mm^3 were randomly divided into groups. The effect of polypeptide on anti-tumor was dynamically observed through the method of measuring tumor diameter. The times of measuring tumor diameter were once 2 days, and meantime, weighed mice. The mice in experimental group were infused polypeptide through tail vein. The mice in the placebo group were injected saline with the same volume, once 1 day; Taxol group: 10 mg/kg, once 1 week; Endostar group: 2.5 mg/kg, once 1 day; The groups of high, intermediate and low polypeptide: 6, 3, 1.5 mg/kg, respectively, once 1 day. After administration, all mice were sacrificed. Stripped the tumors and weighed.

[12] = test system: human kidney cancer A498 xenograft tumors; assay: Tumor growth inhibition, A498 xenograft
Experimental: Human kidney cancer A498 cell lines in logarithmic growth phase were picked and made into 5×10^7/ml cell suspension of under sterile conditions, and then 0.1 ml suspension was inoculated subcutaneously at the right armpit of nude mice. Tumor diameter was measured with a vernier caliper. The animals which had tumors with a size of 100-200 mm^3 were randomly divided into groups. The effect of polypeptide on anti-tumor was dynamically observed through the method of measuring tumor diameter. The times of measuring tumor diameter were once 2 days, and meantime, weighed mice. The mice in experimental group were infused polypeptide through tail vein. The mice in the placebo group were injected saline with the same volume, once 1 day; Taxol group: 10 mg/kg, once 1 week; Endostar group: 2.5 mg/kg, once 1 day; The groups of high, intermediate and low polypeptide: 6, 3, 1.5 mg/kg, respectively, once 1 day. After administration, all mice were sacrificed. Stripped the tumors and weighed.

[13] = test system: human esophageal cancer Ec109 xenograft tumors; format: in vivo, nude mice
Experimental: Tumor diameter was measured with a vernier caliper. […] Tumor volume formula: […]
a, b respectively represent the length and width. […] The formula is as follows: […]
TRTV: Treatment Group RTV; CRTV: Negative Control Group RTV

[14] = test system: human lung cancer H460 xenograft tumors; assay: Tumor growth inhibition, H460 xenograft
Experimental: as §1, §2
(§4) TRTV: Treatment group RTV; CRTV: negative control group RTV

[15] = test system: human cancer 5637 xenograft tumors; assay: Tumor growth inhibition, 5637 xenograft
Experimental: as §3

[16] = test system: human gastric cancer MGC803 xenograft tumors; assay: Tumor growth inhibition, MGC803 xenograft
Experimental: as §1, §2, §4

[17] = test system: human colon cancer HT-29 xenograft tumors; assay: Tumor growth inhibition, HT-29 xenograft
Experimental: Human colon cancer HT-29 cell lines in logarithmic growth phase were picked, and made into 5×10^7/ml cell suspension of under sterile conditions, and then 0.1 ml suspension was inoculated subcutaneously at the right armpit of nude mice. Tumor diameter was measured with a vernier caliper. The animals which had tumors with a size of 100-200 mm^3 were randomly divided into groups. The effect of polypeptide on anti-tumor was dynamically observed through the method of measuring tumor diameter. The times of measuring tumor diameter were once 2 days, and meantime, weighed mice. The mice in experimental group were infused polypeptide through tail vein. The mice in the placebo group were injected saline with the same volume, once 1 day; Taxol group: 10 mg/kg, once 1 week; Endostar group: 2.5 mg/kg, once 1 day; The groups of high, intermediate and low polypeptide: 6, 3, 1.5 mg/kg, respectively, once 1 day. After administration, all mice were sacrificed. Stripped the tumors and weighed.

[18] = test system: human breast cancer MDA-MB-231 xenograft tumors; assay: Tumor growth inhibition, MDA-MB-231 xenograft
Experimental: Picked the tumor tissue of vigorous growth and was cut into pieces of about 1.5 mm^3. Under sterile conditions, the tumor tissue was inoculated subcutaneously on the right of nude mice. Tumor diameter was measured with a vernier caliper. The animals which had tumors with a size of 100-200 mm^3 were randomly divided into groups. The effect of polypeptide on anti-tumor was dynamically observed through the method of measuring tumor diameter. The times of measuring tumor diameter were once 2 days, and meantime, weighed mice. The mice in experimental group were infused polypeptide through tail vein, once 3 days. The mice in the placebo group were injected saline with the same volume. Tumor volume formula: TV=0.52×a×b^2
as §2, §4

[19] = Pharmacokinetics of mPEG-SC20k-HM-3 and HM-3 in rats (plasma concentration by ELISA)
Experimental: SD rats were randomly divided into six groups with the same number for male and female. Take three groups were administered intravenously integrin antagonist polypeptide with a high dose of 52 mg/kg (equivalent to HM-3 4.2 mg/kg), an intermediate dose of 26 mg/kg (equivalent to HM-3 2.1 mg/kg), a low-dose of 13 mg/kg (equivalent to HM-3 1.05 mg/kg). The other 3 groups were injected HM-3 with a high dose of 4.2 mg/kg, an intermediate dose of 2.1 mg/kg, a low doses of 1.05 mg/kg. Collected whole blood 0.5 ml once from the orbital venous plexus after 0.5 h, 1 h, 2 h, 3 h, 6 h, 12 h, 24 h, 48 h, 72 h, 96 h, 108 h, 132 h of drug administration, and applied heparin to get the effect of anti-coagulation. 12000 rpm/2 min centrifuged plasma. Draw supernatant 200 μl and 80° C. preheated PBS (0.05 M pH7.4) buffer 600 μl and mixed. Bath in the 80° C. water for 30 min. Centrifuged 2 min at 12000 rpm, and collected the supernatant, and stored in the condition of −20° C. Dissolved at room temperature, measured integrin antagonist peptide plasma concentration by ELISA.

[20] = Immunogenicity assay, antibody titers in serum by ELISA; settings: 3.0 mg/kg iv once a day, 8 weeks; FIG. 2
integrin α5β1 = molecular target: T1, integrin α5β1 (human, UniProt P08648 42-1049; P05556 21-798); assay: flow cytometry, FITC-labeled peptide on Bel-7402 and MCF-7 cells pre-incubated with function-blocking anti-integrin antibodies
T1 construct: whole, on cells; Endogenous integrin on Bel-7402 and MCF-7 cells; also called alpha 5 beta 1

integrin ανβ3 = molecular target: T2, integrin ανβ3 (human, UniProt P06756 31-1048; P05106 27-788); assay: as above
T2 construct: whole, on cells; Endogenous integrin on Bel-7402 and MCF-7 cells; also called alpha v beta 3
T2 sequence (P06756 31-1048, chain 1 of 2): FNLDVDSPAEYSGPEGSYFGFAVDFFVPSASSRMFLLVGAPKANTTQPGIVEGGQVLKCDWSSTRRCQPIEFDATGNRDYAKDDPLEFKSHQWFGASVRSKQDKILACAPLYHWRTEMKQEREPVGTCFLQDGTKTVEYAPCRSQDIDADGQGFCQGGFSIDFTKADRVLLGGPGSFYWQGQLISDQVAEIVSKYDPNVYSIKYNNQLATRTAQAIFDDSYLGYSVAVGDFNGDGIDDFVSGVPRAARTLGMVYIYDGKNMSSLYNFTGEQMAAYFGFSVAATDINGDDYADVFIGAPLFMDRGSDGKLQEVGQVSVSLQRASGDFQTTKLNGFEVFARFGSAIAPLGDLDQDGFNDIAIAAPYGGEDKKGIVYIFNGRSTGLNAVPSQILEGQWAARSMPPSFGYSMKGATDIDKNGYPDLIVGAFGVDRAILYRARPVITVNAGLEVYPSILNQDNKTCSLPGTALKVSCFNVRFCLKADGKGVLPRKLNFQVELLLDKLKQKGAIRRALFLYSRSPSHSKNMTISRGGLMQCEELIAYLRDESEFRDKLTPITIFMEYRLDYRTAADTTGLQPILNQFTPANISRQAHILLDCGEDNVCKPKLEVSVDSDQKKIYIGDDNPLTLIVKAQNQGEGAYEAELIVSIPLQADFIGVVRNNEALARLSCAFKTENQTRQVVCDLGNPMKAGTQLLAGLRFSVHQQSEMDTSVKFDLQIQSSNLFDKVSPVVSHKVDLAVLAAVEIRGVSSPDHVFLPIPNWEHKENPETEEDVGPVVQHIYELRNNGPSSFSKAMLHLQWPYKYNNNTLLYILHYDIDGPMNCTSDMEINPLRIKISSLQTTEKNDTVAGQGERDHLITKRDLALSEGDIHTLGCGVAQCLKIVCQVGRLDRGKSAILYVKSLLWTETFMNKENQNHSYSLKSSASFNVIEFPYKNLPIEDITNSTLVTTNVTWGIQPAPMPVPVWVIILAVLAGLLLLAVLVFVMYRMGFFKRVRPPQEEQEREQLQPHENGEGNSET
T2 sequence (P05106 27-788, chain 2 of 2): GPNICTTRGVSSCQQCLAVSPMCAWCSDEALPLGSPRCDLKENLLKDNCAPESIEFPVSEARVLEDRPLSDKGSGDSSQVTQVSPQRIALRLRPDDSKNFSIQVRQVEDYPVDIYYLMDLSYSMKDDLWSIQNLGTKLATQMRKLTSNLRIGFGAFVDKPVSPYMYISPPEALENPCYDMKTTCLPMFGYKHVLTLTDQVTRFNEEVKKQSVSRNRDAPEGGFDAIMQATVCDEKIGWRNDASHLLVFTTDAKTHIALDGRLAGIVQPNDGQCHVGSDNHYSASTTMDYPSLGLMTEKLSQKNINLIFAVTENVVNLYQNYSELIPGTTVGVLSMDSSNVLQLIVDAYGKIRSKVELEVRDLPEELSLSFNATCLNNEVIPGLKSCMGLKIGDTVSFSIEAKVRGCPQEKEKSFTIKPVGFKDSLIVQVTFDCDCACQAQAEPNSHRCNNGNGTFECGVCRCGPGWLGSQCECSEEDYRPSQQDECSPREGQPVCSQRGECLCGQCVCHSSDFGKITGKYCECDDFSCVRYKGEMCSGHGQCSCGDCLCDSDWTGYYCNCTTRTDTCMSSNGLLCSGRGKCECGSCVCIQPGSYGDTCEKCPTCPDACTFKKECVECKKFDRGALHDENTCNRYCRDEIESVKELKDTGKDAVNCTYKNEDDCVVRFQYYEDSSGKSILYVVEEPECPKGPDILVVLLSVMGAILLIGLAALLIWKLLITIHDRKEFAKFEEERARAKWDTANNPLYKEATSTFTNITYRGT

T1 sequence (P08648 42-1049, chain 1 of 2): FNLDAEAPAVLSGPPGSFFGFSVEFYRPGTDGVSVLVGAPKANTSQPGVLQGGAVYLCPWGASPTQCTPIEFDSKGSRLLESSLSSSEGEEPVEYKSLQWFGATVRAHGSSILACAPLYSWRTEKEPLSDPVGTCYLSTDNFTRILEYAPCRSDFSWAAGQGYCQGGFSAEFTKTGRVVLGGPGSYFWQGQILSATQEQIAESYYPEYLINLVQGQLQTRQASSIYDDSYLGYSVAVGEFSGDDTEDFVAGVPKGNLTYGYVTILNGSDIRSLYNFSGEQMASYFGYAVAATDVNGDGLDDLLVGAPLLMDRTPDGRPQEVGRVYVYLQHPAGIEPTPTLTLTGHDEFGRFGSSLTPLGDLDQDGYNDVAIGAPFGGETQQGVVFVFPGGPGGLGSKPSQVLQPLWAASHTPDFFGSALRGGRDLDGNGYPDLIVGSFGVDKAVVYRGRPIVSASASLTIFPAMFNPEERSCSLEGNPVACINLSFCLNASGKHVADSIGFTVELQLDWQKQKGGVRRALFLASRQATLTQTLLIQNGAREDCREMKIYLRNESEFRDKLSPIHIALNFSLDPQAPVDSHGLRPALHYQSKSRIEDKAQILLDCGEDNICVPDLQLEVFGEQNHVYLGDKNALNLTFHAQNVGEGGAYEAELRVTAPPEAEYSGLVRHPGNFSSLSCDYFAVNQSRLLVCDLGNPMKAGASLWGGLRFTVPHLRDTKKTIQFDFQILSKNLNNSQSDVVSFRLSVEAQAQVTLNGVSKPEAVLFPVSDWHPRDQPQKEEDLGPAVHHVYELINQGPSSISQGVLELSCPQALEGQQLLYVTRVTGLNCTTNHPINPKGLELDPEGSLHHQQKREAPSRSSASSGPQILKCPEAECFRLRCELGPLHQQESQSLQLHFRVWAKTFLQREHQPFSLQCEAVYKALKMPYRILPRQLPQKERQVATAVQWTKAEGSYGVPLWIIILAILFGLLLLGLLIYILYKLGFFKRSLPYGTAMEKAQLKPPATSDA
T1 sequence (P05556 21-798, chain 2 of 2): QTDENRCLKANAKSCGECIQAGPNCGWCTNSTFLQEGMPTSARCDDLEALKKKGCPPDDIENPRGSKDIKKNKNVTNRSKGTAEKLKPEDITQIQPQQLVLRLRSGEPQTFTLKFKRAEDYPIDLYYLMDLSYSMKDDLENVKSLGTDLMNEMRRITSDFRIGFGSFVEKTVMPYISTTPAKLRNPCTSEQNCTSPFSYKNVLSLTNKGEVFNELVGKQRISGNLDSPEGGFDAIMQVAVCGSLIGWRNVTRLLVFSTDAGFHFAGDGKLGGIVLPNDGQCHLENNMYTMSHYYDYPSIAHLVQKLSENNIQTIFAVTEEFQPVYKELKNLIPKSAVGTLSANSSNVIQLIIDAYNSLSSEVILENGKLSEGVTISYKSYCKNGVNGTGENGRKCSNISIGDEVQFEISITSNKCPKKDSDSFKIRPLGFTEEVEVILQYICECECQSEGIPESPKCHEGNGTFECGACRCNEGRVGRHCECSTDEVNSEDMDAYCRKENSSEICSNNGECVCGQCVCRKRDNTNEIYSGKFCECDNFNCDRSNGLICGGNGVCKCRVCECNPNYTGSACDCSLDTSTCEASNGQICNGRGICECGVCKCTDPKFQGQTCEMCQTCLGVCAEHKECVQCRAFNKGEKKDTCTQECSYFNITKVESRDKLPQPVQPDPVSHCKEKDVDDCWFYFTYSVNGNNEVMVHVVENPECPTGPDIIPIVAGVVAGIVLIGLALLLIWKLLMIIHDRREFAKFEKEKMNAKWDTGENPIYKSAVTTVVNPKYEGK

Molecule: O=c1[nH]cc(F)c(=O)[nH]1 [5-Fu, reference compound]
- toxicity in experimental animals ([1]; 10 mg/kg): greater toxicity and leads to the weight loss and death
- Final weight ([1]; 10 mg/kg): 21.32 g
- Rate of inhibiting tumors ([1]; 10 mg/kg): 74.50%
- Tumor weight ([1]; 10 mg/kg): 0.320 g
- Final weight ([2]; 10 mg/kg, Once 1 day): 22.43 g
- Rate of inhibiting tumors ([2]; 10 mg/kg, Once 1 day): 76.68%
- Tumor weight ([2]; 10 mg/kg, Once 1 day): 0.323 g

Molecule: O=P1(N(CCCl)CCCl)NCCCO1 (stereo not drawn) [Cyclophosphamide]
- Final weight ([3]; 15 mg/kg, Once 2 days): 23.85 g
- Rate of inhibiting tumors ([3]; 15 mg/kg, Once 2 days): 74.15%
- Tumor weight ([3]; 15 mg/kg, Once 2 days): 0.501 g

Molecule: N.N.[Cl][Pt][Cl] [Cisplatin, reference compound]
- Rate of inhibiting tumors ([4]; 10 mg/kg, Twice a week): 70.60%
- Final weight ([5]; 10 mg/kg, Twice 1 week): 22.19 g
- Rate of inhibiting tumors ([5]; 10 mg/kg, Twice 1 week): 76.13%
- Tumor weight ([5]; 10 mg/kg, Twice 1 week): 0.302 g
- Rate of inhibiting tumors ([6]; 10 mg/kg, Twice 1 week): 70.74%
- influence on the weight of experimental animals ([7]; 10 mg/kg): significantly affects the weight
- Final weight ([7]; 10 mg/kg, Twice 1 week): 22.33 g
- Rate of inhibiting tumors ([7]; 10 mg/kg, Twice 1 week): 73.36%
- Tumor weight ([7]; 10 mg/kg, Twice 1 week): 0.320 g

Molecule: CC(=O)O[C@H]1C(=O)[C@@]2(C)[C@H]([C@H](OC(=O)c3ccccc3)[C@]3(O)C[C@H](OC(=O)[C@H](O)[C@@H](NC(=O)c4ccccc4)c4ccccc4)C(C)=C1C3(C)C)[C@]1(OC(C)=O)CO[C@@H]1C[C@@H]2O [Taxol, reference compound]
- Final weight ([4]; 10 mg/kg, Twice a week): 23.81 g
- Rate of inhibiting tumors ([4]; 10 mg/kg, Twice a week): 70.60%
- Tumor weight ([4]; 10 mg/kg, Twice a week): 0.545 g
- Final weight ([8]; 10 mg/kg, Once 2 days): 23.47 g
- Rate of inhibiting tumors ([8]; 10 mg/kg, Once 2 days): 65.37%
- Tumor weight ([8]; 10 mg/kg, Once 2 days): 0.428 g
- Final weight ([9]; 10 mg/kg, Once 2 days): 21.65 g
- Rate of inhibiting tumors ([9]; 10 mg/kg, Once 2 days): 67.88%
- Tumor weight ([9]; 10 mg/kg, Once 2 days): 0.327 g
- Final weight ([10]; 10 mg/kg, Once 2 days): 20.43 g
- Rate of inhibiting tumors ([10]; 10 mg/kg, Once 2 days): 78.13%
- Tumor weight ([10]; 10 mg/kg, Once 2 days): 0.232 g
- Final weight ([11]; 10 mg/kg, Twicw 1 week): 22.19 g
- Rate of inhibiting tumors ([11]; 10 mg/kg, Twicw 1 week): 75.55%
- Tumor weight ([11]; 10 mg/kg, Twicw 1 week): 0.295 g
- Final weight ([12]; 10 mg/kg, Once 2 days): 21.15 g
- Rate of inhibiting tumors ([12]; 10 mg/kg, Once 2 days): 74.32%
- Tumor weight ([12]; 10 mg/kg, Once 2 days): 0.242 g
- Rate of inhibiting tumors ([13]; 10 mg/kg, Once 2 days): 70.19%
- Tumor weight ([13]; 10 mg/kg, Once 2 days): 0.276 g
- Final weight ([14]; 10 mg/kg, Once 2 days): 19.58 g
- Rate of inhibiting tumors ([14]; 10 mg/kg, Once 2 days): 68.77%
- Tumor weight ([14]; 10 mg/kg, Once 2 days): 0.248 g
- Rate of inhibiting tumors ([6]; 10 mg/kg, Twice 1 week): 70.74%
- Tumor weight ([6]; 10 mg/kg, Twice 1 week): 0.590 g
- Final weight ([15]; 10 mg/kg, Twice 1 week): 24.46 g
- Final weight ([16]; 10 mg/kg, Once 2 days): 22.05 g
- Rate of inhibiting tumors ([16]; 10 mg/kg, Once 2 days): 74.12%
- Tumor weight ([16]; 10 mg/kg, Once 2 days): 0.187 g
- Final weight ([17]; 10 mg/kg, Once 2 days): 22.84 g
- Rate of inhibiting tumors ([17]; 10 mg/kg, Once 2 days): 69.11%
- Tumor weight ([17]; 10 mg/kg, Once 2 days): 0.346 g
- Final weight ([18]; 10 mg/kg, Once 2 days): 23.32 g
- Rate of inhibiting tumors ([18]; 10 mg/kg, Once 2 days): 73.05%
- Tumor weight ([18]; 10 mg/kg, Once 2 days): 0.335 g

Molecule: CC[C@H](C)[C@H](N)C(=O)N[C@H](C(=O)N[C@@H](CCCNC(=N)N)C(=O)N[C@@H](CCCNC(=N)N)C(=O)N[C@@H](C)C(=O)N[C@@H](CC(=O)O)C(=O)N[C@@H](CCCNC(=N)N)C(=O)N[C@@H](C)C(=O)N[C@@H](C)C(=O)N[C@H](C(=O)N1CCC[C@H]1C(=O)NCC(=O)NCC(=O)NCC(=O)NCC(=O)N[C@@H](CCCNC(=N)N)C(=O)NCC(=O)N[C@@H](CC(=O)O)C(=O)O)C(C)C)C(C)C [HM-3, Ile-Val-Arg-Arg-Ala-Asp-Arg-Ala-Ala-Val-Pro-Gly-Gly-Gly-Gly-Arg-Gly-Asp] (H-IVRRADRAAVPGGGGRGD-OH; N-terminus assumed)
- Final weight ([4]; 1.5 mg/kg, Once 3 days): 23.64 g
- Rate of inhibiting tumors ([4]; 1.5 mg/kg, Once 3 days): 56.36%
- Tumor weight ([4]; 1.5 mg/kg, Once 3 days): 0.809 g
- Rate of inhibiting tumors ([5]; 1.5 mg/kg, Once 3 days): 49.49%
- Tumor weight ([5]; 1.5 mg/kg, Once 3 days): 0.639 g
- Final weight ([8]; 1.5 mg/kg, Once 3 days): 23.86 g
- Rate of inhibiting tumors ([8]; 1.5 mg/kg, Once 3 days): 57.25%
- Tumor weight ([8]; 1.5 mg/kg, Once 3 days): 0.528 g
- Final weight ([9]; 1.5 mg/kg, Once 3 days): 22.30 g
- Rate of inhibiting tumors ([9]; 1.5 mg/kg, Once 3 days): 50.49%
- Tumor weight ([9]; 1.5 mg/kg, Once 3 days): 0.504 g
- Final weight ([10]; 1.5 mg/kg, Once 3 days): 20.92 g
- Rate of inhibiting tumors ([10]; 1.5 mg/kg, Once 3 days): 57.59%
- Tumor weight ([10]; 1.5 mg/kg, Once 3 days): 0.450 g
- Rate of inhibiting tumors ([3]; 1.5 mg/kg, Once 3 days): 59.24%
- Tumor weight ([3]; 1.5 mg/kg, Once 3 days): 0.790 g
- Final weight ([1]; 1.5 mg/kg): 22.70 g
- Rate of inhibiting tumors ([1]; 1.5 mg/kg): 57.70%
- Tumor weight ([1]; 1.5 mg/kg): 0.530 g
- Final weight ([11]; 1.5 mg/kg, Once 3 days): 22.85 g
- Rate of inhibiting tumors ([11]; 1.5 mg/kg, Once 3 days): 54.49%
- Tumor weight ([11]; 1.5 mg/kg, Once 3 days): 0.550 g
- Final weight ([12]; 1.5 mg/kg, Once 3 days): 20.88 g
- Rate of inhibiting tumors ([12]; 1.5 mg/kg, Once 3 days): 54.77%
- Tumor weight ([12]; 1.5 mg/kg, Once 3 days): 0.427 g
- Final weight ([2]; 1.5 mg/kg, Once 3 days): 23.10 g
- Rate of inhibiting tumors ([2]; 1.5 mg/kg, Once 3 days): 57.94%
- Tumor weight ([2]; 1.5 mg/kg, Once 3 days): 0.582 g
- Rate of inhibiting tumors ([13]; 1.5 mg/kg, Once 3 days): 60.57%
- Tumor weight ([13]; 1.5 mg/kg, Once 3 days): 0.365 g
- Final weight ([14]; 1.5 mg/kg, Once 3 days): 21.11 g
- Rate of inhibiting tumors ([14]; 1.5 mg/kg, Once 3 days): 65.42%
- Tumor weight ([14]; 1.5 mg/kg, Once 3 days): 0.274 g
- Rate of inhibiting tumors ([6]; 1.5 mg/kg, Once 3 days): 59.40%
- Tumor weight ([6]; 1.5 mg/kg, Once 3 days): 0.82 g
- Final weight ([15]; 1.5 mg/kg, Once 3 days): 25.15 g
- Final weight ([7]; 1.5 mg/kg, Once 3 days): 22.85 g
- Rate of inhibiting tumors ([7]; 1.5 mg/kg, Once 3 days): 61.03%
- Tumor weight ([7]; 1.5 mg/kg, Once 3 days): 0.468 g
- Final weight ([16]; 1.5 mg/kg, Once 3 days): 22.37 g
- Rate of inhibiting tumors ([16]; 1.5 mg/kg, Once 3 days): 70.40%
- Tumor weight ([16]; 1.5 mg/kg, Once 3 days): 0.214 g
- AUC0-∞ ([19]; SD rats, intravenous): 25.63 mg/L/h
- t1/2p ([19]; SD rats, intravenous): 27.66 min
- t1/2β ([19]; SD rats, intravenous): 27.6 min
- clearance ([19]; both, SD, rat, plasma, iv): 23 mL/min/kg
- half-life ([19]; both, SD, rat, plasma, iv): 27.6 min
- MRT inf ([19]; both, SD, rat, plasma, iv, MRT0-∞, SD rats): 2.16 min
- time of administration at which antibody appeared [20]: third week
- Final weight ([17]; 1.5 mg/kg, Once 3 days): 23.15 g
- Rate of inhibiting tumors ([17]; 1.5 mg/kg, Once 3 days): 52.59%
- Tumor weight ([17]; 1.5 mg/kg, Once 3 days): 0.531 g
- Final weight ([18]; 1.5 mg/kg, Once 3 days): 23.54 g
- Rate of inhibiting tumors ([18]; 1.5 mg/kg, Once 3 days): 57.14%
- Tumor weight ([18]; 1.5 mg/kg, Once 3 days): 0.533 g

B1: mPEG-SC20k-Ile-Val-Arg-Arg-Ala-Asp-Arg-Ala-Ala-Val-Pro-Gly-Gly-Gly-Gly-Arg-Gly-Asp (mPEG-SC20k-HM-3) (peptide)
peptide: {mPEG‑SC20k}-IVRRADRAAVPGGGGRGD
modifications: also: FITC labeled, site not given here
notes: also called integrin antagonist polypeptide
- binding result (integrin α5β1): binds
- binding result (integrin ανβ3): binds
